One data set addresses T1, Toll-like receptor 9 (Homo sapiens, UniProt Q9NR96).
T1 sequence (Q9NR96 whole entry): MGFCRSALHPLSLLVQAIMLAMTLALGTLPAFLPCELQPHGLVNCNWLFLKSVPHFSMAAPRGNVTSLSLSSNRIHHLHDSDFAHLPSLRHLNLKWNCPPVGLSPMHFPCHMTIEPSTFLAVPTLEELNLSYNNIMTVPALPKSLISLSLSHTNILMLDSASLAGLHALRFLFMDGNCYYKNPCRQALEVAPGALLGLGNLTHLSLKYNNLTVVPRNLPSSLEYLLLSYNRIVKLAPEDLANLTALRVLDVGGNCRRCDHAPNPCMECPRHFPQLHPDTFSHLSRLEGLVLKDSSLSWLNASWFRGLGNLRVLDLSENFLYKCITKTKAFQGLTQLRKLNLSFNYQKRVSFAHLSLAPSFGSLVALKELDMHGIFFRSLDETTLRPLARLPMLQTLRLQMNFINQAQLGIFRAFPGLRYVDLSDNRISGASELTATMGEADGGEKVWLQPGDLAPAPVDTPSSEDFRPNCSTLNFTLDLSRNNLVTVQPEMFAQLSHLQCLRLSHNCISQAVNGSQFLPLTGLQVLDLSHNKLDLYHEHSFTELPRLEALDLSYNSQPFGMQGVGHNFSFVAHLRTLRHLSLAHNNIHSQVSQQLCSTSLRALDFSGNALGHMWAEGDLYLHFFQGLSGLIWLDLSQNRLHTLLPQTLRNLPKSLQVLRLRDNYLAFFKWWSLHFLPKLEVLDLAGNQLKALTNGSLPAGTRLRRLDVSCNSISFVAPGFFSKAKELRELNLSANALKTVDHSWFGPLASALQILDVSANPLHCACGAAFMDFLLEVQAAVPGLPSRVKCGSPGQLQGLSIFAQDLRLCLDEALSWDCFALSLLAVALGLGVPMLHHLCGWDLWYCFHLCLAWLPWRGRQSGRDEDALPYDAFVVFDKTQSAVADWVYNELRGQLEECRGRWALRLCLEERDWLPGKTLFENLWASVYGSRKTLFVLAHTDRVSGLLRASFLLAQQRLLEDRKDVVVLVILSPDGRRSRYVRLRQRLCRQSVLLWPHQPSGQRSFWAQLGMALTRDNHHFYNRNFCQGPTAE
The data set is described as follows: Antagonist activity at TLR9 in human pDC assessed as inhibition of ODN2216-induced IFN-alpha production incubated for 24 hrs measured by ELISA. In general terms: ELISA stands for enzyme-linked immunosorbent assay.

The nature of data set [1]: Terminal half life in mouse at 3 mg/kg, iv. The format is ADME, organism-based. To be noted: in vivo, read-out: beta t1/2 (converted).

Here are results for one compound from ChEMBL document CHEMBL4619828, “Discovery of Potent and Orally Bioavailable Small Molecule Antagonists of Toll-like Receptors 7/8/9 (TLR7/8/9)” (ACS Med Chem Lett, 2020).

In general, IC50 refers to the midpoint of a concentration-inhibition curve. As to `CNCCN1CCC(c2ccc3[nH]c(-c4ccc(OC)c(OC)c4)c(C(C)C)c3c2)CC1`, at Toll-like receptor 9, the IC50 is 210 nM. The half-life in data set [1] was 32 h.
